In PubChem BioAssay (NCI) one finds GI50 and TGI data, which are given here for seven compounds.

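Assay format: 96-well plates, 48-hour exposure. Abbreviation: GI50, concentration required for 50% inhibition of growth. TGI marks complete inhibition of growth.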

Some test systems named below: NCI/ADR-RES ovarian; SF-295 CNS; NCI-H23 lung; MOLT-4 leukemia; MCF7 breast; A549 NSCLC; K-562 leukemia; BT-549 breast; RXF 393 renal; HL-60(TB) leukemia.
Assay in all cases: DTP human tumour cell line panel, 48 h

For `CC1=C(C)C(=O)O[C@@H]([C@](C)(O)[C@]2(O)CC[C@@]3(O)[C@@H]4C[C@H]5O[C@]56CC=CC(=O)[C@]6(C)[C@H]4CC[C@]23C)C1`, the GI50 is 2.76 µM in the experiment with NCI/ADR-RES ovarian; 0.62 µM in the experiment with SF-295 CNS; 0.254 µM with NCI-H23 lung; 0.0786 µM with MOLT-4 leukemia; 0.0668 µM in the experiment on MCF7 breast; 0.568 µM with A549 NSCLC. Besides, the GI50 with K-562 leukemia was 0.0907 µM; in the experiment on BT-549 breast it was 0.335 µM; with RXF 393 renal it was 0.169 µM; in the experiment on HL-60(TB) leukemia, 0.0412 µM. In addition, the TGI is over 63.8 µM with NCI/ADR-RES ovarian; 14.7 µM in the experiment on SF-295 CNS; 2.93 µM in the experiment with NCI-H23 lung; 35.2 µM with MOLT-4 leukemia; 2.8 µM in the experiment on MCF7 breast; 5.93 µM in the experiment with A549 NSCLC. Moreover, the TGI with K-562 leukemia is over 27.8 µM; in the experiment on BT-549 breast it was 1.45 µM; in the experiment with RXF 393 renal, 0.62 µM; in the experiment with HL-60(TB) leukemia it was 1.48 µM.
For `COc1cc(-c2cn(C)c(=O)c(C)c2C)cc(OC)c1CN1CC[C@H](N2CCN(c3ccc(N[C@H]4CCC(=O)NC4=O)cc3F)CC2)C(F)(F)C1`, the GI50 in the experiment with NCI/ADR-RES ovarian is 12.9 µM; in the experiment on SF-295 CNS it was 11.9 µM; in the experiment on NCI-H23 lung it was 14 µM; with MOLT-4 leukemia, 21.2 µM; in the experiment on MCF7 breast, 3.16 µM; with A549 NSCLC it was 12.3 µM. The GI50 in the experiment on K-562 leukemia is 9.44 µM; in the experiment with BT-549 breast it was 12.6 µM; with RXF 393 renal it was 11.1 µM; in the experiment on HL-60(TB) leukemia it was 2.92 µM. Moreover, the total growth inhibition concentration (TGI) in the experiment on NCI/ADR-RES ovarian was 30.5 µM; in the experiment on SF-295 CNS, 25.5 µM; in the experiment on NCI-H23 lung, 28.6 µM; with MOLT-4 leukemia, over 100 µM; with MCF7 breast, 29.6 µM; in the experiment with A549 NSCLC, 31.1 µM. Further, the TGI was over 100 µM with K-562 leukemia, 28.3 µM in the experiment with BT-549 breast, 25 µM in the experiment on RXF 393 renal and over 100 µM in the experiment with HL-60(TB) leukemia.
Turning to `CNC(=O)c1cc(Oc2ccc(NC(=O)Nc3ccc(Cl)c(OC(F)(F)F)c3)c(F)c2)ccn1`, the GI50 in the experiment on NCI/ADR-RES ovarian is 1.37 µM; in the experiment on SF-295 CNS it was 1.1 µM; in the experiment on NCI-H23 lung it was 0.913 µM; in the experiment with MOLT-4 leukemia it was 1.19 µM; with MCF7 breast it was 1.12 µM; in the experiment on A549 NSCLC, 2.03 µM. Also, the GI50 in the experiment with K-562 leukemia is 1.22 µM; with BT-549 breast it was 3.17 µM; with RXF 393 renal, 3.58 µM; with HL-60(TB) leukemia, 1 µM. The concentration for total growth inhibition (TGI) with NCI/ADR-RES ovarian was 5.22 µM; in the experiment on SF-295 CNS, 5.25 µM; in the experiment with NCI-H23 lung it was 5.58 µM; in the experiment on MOLT-4 leukemia, 8.64 µM; in the experiment on MCF7 breast, 7.17 µM; in the experiment on A549 NSCLC it was over 33.2 µM. The TGI in the experiment on K-562 leukemia is 8.22 µM; in the experiment on BT-549 breast it was 14 µM; with RXF 393 renal it was 18.9 µM; in the experiment with HL-60(TB) leukemia, 6.53 µM.
For `COc1ccc(C2C(C#N)=C(N)OC3=C2CCCc2ccc(F)cc23)cc1OC` (stereo not given), the GI50 is 16.6 µM in the experiment with NCI/ADR-RES ovarian; 33.2 µM in the experiment with SF-295 CNS; 22.8 µM with NCI-H23 lung; over 38.2 µM with MOLT-4 leukemia; 28.1 µM with MCF7 breast; 25.8 µM with A549 NSCLC. In addition, the GI50 in the experiment on K-562 leukemia is 26.6 µM; with BT-549 breast, 19.4 µM; in the experiment on RXF 393 renal it was 18.7 µM; with HL-60(TB) leukemia, 32 µM. The TGI in the experiment on NCI/ADR-RES ovarian was 43.9 µM; in the experiment with SF-295 CNS, over 57.3 µM; in the experiment with NCI-H23 lung, over 65.9 µM; with MOLT-4 leukemia, over 66.9 µM; with MCF7 breast it was over 77.7 µM; in the experiment with A549 NSCLC, over 69.6 µM. The TGI with K-562 leukemia is over 100 µM; in the experiment with BT-549 breast it was 42.5 µM; in the experiment with RXF 393 renal, 45.7 µM; in the experiment with HL-60(TB) leukemia, over 100 µM.
As to `CNc1nc(NC2CCCC2)nc(Sc2ccc(OC)cc2)n1`, the GI50 in the experiment on NCI/ADR-RES ovarian, in the experiment with SF-295 CNS, in the experiment on NCI-H23 lung, in the experiment with MOLT-4 leukemia, in the experiment with MCF7 breast and with A549 NSCLC was over 10 µM throughout. In addition, the GI50 in the experiment on K-562 leukemia, in the experiment on BT-549 breast, with RXF 393 renal and in the experiment on HL-60(TB) leukemia was over 10 µM each time. Further, the TGI with NCI/ADR-RES ovarian, in the experiment with SF-295 CNS, in the experiment with NCI-H23 lung, with MOLT-4 leukemia, in the experiment on MCF7 breast and in the experiment on A549 NSCLC was over 10 µM throughout. For the same compound, the total growth inhibition concentration (TGI) with K-562 leukemia, in the experiment on BT-549 breast, in the experiment on RXF 393 renal and in the experiment with HL-60(TB) leukemia was over 10 µM each time.
As for `CCCSc1cc(Cl)nc(N)n1`, the GI50 with NCI/ADR-RES ovarian is over 100 µM; in the experiment on SF-295 CNS, over 100 µM; in the experiment on NCI-H23 lung it was over 100 µM; in the experiment with MOLT-4 leukemia, 94.8 µM; in the experiment with MCF7 breast, over 100 µM; with A549 NSCLC, over 100 µM. Besides, the GI50 in the experiment with K-562 leukemia was over 100 µM; with BT-549 breast it was 65.1 µM; with RXF 393 renal, over 100 µM; in the experiment on HL-60(TB) leukemia, 6.48 µM. The TGI in the experiment on NCI/ADR-RES ovarian, with SF-295 CNS, in the experiment on NCI-H23 lung, with MOLT-4 leukemia, in the experiment on MCF7 breast and in the experiment with A549 NSCLC was over 100 µM each time. Further, the TGI in the experiment with K-562 leukemia is over 100 µM; in the experiment on BT-549 breast, over 100 µM; with RXF 393 renal it was over 100 µM; in the experiment on HL-60(TB) leukemia it was 50.5 µM.
Consider `CC(=O)n1c(-c2ccc(Cl)cc2)nc2c(c1=O)C(c1ccc(Cl)cc1)c1sc3c(Cl)cccc3c1O2` (stereo not given), for which the GI50 is 0.292 µM with NCI/ADR-RES ovarian; 0.31 µM in the experiment on SF-295 CNS; 0.513 µM in the experiment on NCI-H23 lung; 0.409 µM with MOLT-4 leukemia; 0.282 µM in the experiment on MCF7 breast; 0.835 µM with A549 NSCLC. The GI50 is 0.405 µM in the experiment with K-562 leukemia, 0.373 µM in the experiment on BT-549 breast, 0.251 µM in the experiment with RXF 393 renal and 0.289 µM with HL-60(TB) leukemia. In addition, the concentration for total growth inhibition (TGI) with NCI/ADR-RES ovarian amounted to 1.01 µM; with SF-295 CNS, 1.24 µM; in the experiment on NCI-H23 lung, 2.32 µM; in the experiment with MOLT-4 leukemia it was 2.54 µM; with MCF7 breast, 1.47 µM; in the experiment with A549 NSCLC, 2.32 µM. The TGI in the experiment with K-562 leukemia is 2.32 µM; with BT-549 breast, 1.89 µM; in the experiment on RXF 393 renal, 0.85 µM; with HL-60(TB) leukemia it was 0.853 µM.
